Source: patent US8524897B2, “Crystalline oxazine derivative” (Novartis AG, priority 2011, dated 2013)

How the values were obtained:
[1] = Test 4: Inhibition of cellular release of amyloid peptide 1-40; format: cell-based, Chinese hamster; details: Cricetulus griseus, CHO, 24 h, mean IC50, Test 4, CHO cells with human APP, read-out: Amyloid-β1-40 release IC50
Protocol: (§1) Test 4: Inhibition of Cellular Release of Amyloid Peptide 1-40
(§2) Chinese hamster ovary cells are transfected with the human gene for amyloid precursor protein. The cells are plated at a density of 8000 cells/well into 96-well microtiter plates and cultivated for 24 hours in DMEM cell culture medium containing 10% FCS. The test compound is added to the cells at various concentrations, and the cells are cultivated for 24 hours in the presence of the test compound. The supernatants are collected, and the concentration of amyloid peptide 1-40 is determined using state of the art immunoassay techniques, for example sandwich ELISA, homogenous time-resolved fluorescence (HTRF) immunoassay, or electro-chemiluminescence immunoassay.

[2] = Chemical stability of amorphous versus crystalline material exposed to high temperature/humidity for one week (UPLC purity, solid state); format: physicochemical
Protocol: Chemical stability of amorphous versus crystalline 5-cyano-3-methyl-pyridine-2-carboxylic acid [3-((3R,6R)-5-amino-3,6-dimethyl-6-trifluoromethyl-3,6-dihydro-2H-[1,4]oxazin-3-yl)-4-fluoro-phenyl]-amide when exposed to high temperature/humidity for one week
The stability of amorphous versus crystalline 5-cyano-3-methyl-pyridine-2-carboxylic acid [3-((3R,6R)-5-amino-3,6-dimethyl-6-trifluoromethyl-3,6-dihydro-2H-[1,4]oxazin-3-yl)-4-fluoro-phenyl]-amide was tested by exposing the amorphous or crystalline material to high temperature and/or humidity for one week. After storage at high temperature and/or humidity, bulk amorphous or crystalline material was sampled and dissolved in acetonitrile and the purity analysed in a Aquity UPLC from Waters using the following conditions: […]

[3] = system: amyloid peptide 1-40 release from Chinese hamster ovary cells transfected with the human gene for amyloid precursor protein; test: Test 4: Inhibition of cellular release of amyloid peptide 1-40; format: cell-based; details: mean IC50, Test 4, CHO cells with human APP, 24 hours; read-out: Amyloid-β1-40 release IC50
Protocol: as §1, §2

Row | IC50 [1] [nM] | Purity-% ([2]; 50° C., one week, listed as Amorphous) [%] | Purity-% ([2]; 80° C., one week, listed as Amorphous) [%] | Purity-% ([2]; RT, 0 (start), listed as Amorphous) [%] | Purity-% ([2]; RT, one week) [%] | IC50 [3] [nM] | Purity-% ([2]; 40° C./75% RH, one week) [%] | Solid State ([2]; 40° C./75% RH, one week) | Solid State ([2]; 50° C., one week) | Purity-% ([2]; 50° C., one week, listed as Crystalline) [%] | Solid State ([2]; 80° C., one week, Low = lower peaks when measured by XRPD) | Purity-% ([2]; 80° C., one week, listed as Crystalline) [%] | Solid State ([2]; RT, 0 (start)) | Purity-% ([2]; RT, 0 (start), listed as Crystalline) [%] | Structure (SMILES)
1 | 2.6 | 91.6 | 55.8 | 96.4 | 96.3 |  |  |  |  |  |  |  |  |  | Cc1cc(C#N)cnc1C(=O)Nc1ccc(F)c([C@]2(C)CO[C@@](C)(C(F)(F)F)C(N)=N2)c1 [Example 1 Amorphous, 5-cyano-3-methyl-pyridine-2-carboxylic acid [3-((3R,6R)-5-amino-3,6-dimethyl-6-trifluoromethyl-3,6-dihydro-2H-[1,4]oxazin-3-yl)-4-fluoro-phenyl]-amide]
2 |  |  |  |  |  | 2 | 98.23 | Crystalline | Crystalline | 98.05 | Crystalline, | 98.01 | Crystalline | 98.7 | Cc1cc(C#N)cnc1C(=O)Nc1ccc(F)c([C@]2(C)CO[C@@](C)(C(F)(F)F)C(N)=N2)c1 [Example 1 Crystalline, 5-cyano-3-methyl-pyridine-2-carboxylic acid [3-((3R,6R)-5-amino-3,6-dimethyl-6-trifluoromethyl-3,6-dihydro-2H-[1,4]oxazin-3-yl)-4-fluoro-phenyl]-amide]
